In patent US12409174B2, “Combination of zibotentan and dapagliflozin for the treatment of endothelin related diseases” (priority 2020, dated 2025):
Like-named read-outs stand apart in the source and are kept apart here.

Columns and labels:
[1] = tested on: patients with CKD with and without type 2 diabetes; details: dapagliflozin 10 mg
Experimental: The effect of dapagliflozin on albuminuria was investigated in patients with CKD with and without type 2 diabetes. In this analysis from the Phase 3 DAPA CKD trial, the efficacy of dapagliflozin was assessed to determine whether treatment with dapagliflozin reduces the level of albuminuria in patients with CKD.
In the trial, 4304 patients with estimated glomerular filtration rate 25-75 mL/min/1·73 m2 and urinary UACR 200-5000 mg/g were randomized to dapagliflozin (10 mg) or placebo. Change in albuminuria was assessed as the mean change in log-transformed UACR from baseline to end of study. Regression in UACR stage, defined as a transition from macroalbuminuria (≥300 mg/g) to micro- or normoalbuminuria (<300 mg/g), and progression in UACR stage, defined as a transition from <3000 mg/g to ≥3000 mg/g, were additional endpoints.

[2] = Effect of zibotentan on body weight, Experiment 1; format: in vivo, male Wistar rats; details: Exp 1; for Body weight, Difference in means vs Vehicle: log scale, linear mixed effects model
Experimental: (§1) In the first experiment (Experiment 1), the effect of zibotentan on haematocrit (Hct) concentration was determined when zibotentan was administered peroral (p.o) QD for 14 days. […] Animals were weighed daily prior to dosing throughout the experiment. Blood samples (20 μL) for bioanalysis were taken at 4 and 24 hr after the first dose via the tail vein from conscious animals and 24 hr after the last dose via retroorbital route from anesthetized animals. Blood samples were collected via tail vein (100 μL) for Hct concentration and haemoglobin (Hb) measurements, on day 7 and on day 14, 1-2 hr after dosing. Twenty-four hour urine was collected for the measurement of urinary glucose, urine volume and electrolytes between doses nine and ten. Animals were terminated 24 hr after the last dose. On the day of termination, animals were anesthetized using 5% isoflurane, and blood was collected via the retroorbital route (in heparin-coated microvette, Sarsted) and centrifuged at 3,500 rpm at 4° C. for 10 minutes, plasma was collected and stored at −80° C. degrees prior to analysis. Animals were then euthanized by the removal of the heart. Both the heart and the kidneys were extracted and weighed. From the right kidney, a 4 mm thick slice of tissue was collected and fixed in 4% formaldehyde for subsequent histological analysis and a piece of cortical kidney tissue and heart tissue was collected for gene expression analysis.
(§2) Significance was set at p<0.05.

[3] = tested on: male Wistar rats on 4% salt diet; test: Effect of zibotentan on plasma Na, K, glucose and urea, Experiment 1; format: in vivo; details: Exp 1
Experimental: as §1
(§3) Plasma and Urine Albumin, Creatinine, Glucose, Urea, Potassium and Sodium levels were analyzed using an ABX Pentra 400 instrument (Horiba Medical, Irvine, California, USA) according to the manufacturers protocol.
as §2

[4] = tested on: male Wistar rats on 4% salt diet; test: Effect of zibotentan on kidney and heart weight, Experiment 1; format: in vivo
Experimental: as §1, §2

[5] = Zibotentan blood concentrations, Experiment 1; format: in vivo, male Wistar rats; details: male, Wistar, rat, whole blood, oral, Exp 1; for concentration at 4 h: 4 hr post first dose
Experimental: as §1
A volume of 20 μL whole blood was precipitated with 150 μL acetonitrile containing internal standard and quickly vortexed, followed by a 20 min centrifugation at 3220 g and 4° C. […] Zibotentan samples were further diluted twice and three times at a 1:10 ratio with 33% acetonitrile, to ensure all diluted samples were detectible within the calibration range.
Sample concentrations were determined against matrix-spiked calibration standards over a range of 0.010 μM-10.0 μM for dapagliflozin and 0.75 μM-376 μM for zibotentan, applying weighted linear regression (1/X^2) using Waters TargetLynx software version XS V4.2 SCN986. […] Analytical bias was <15% over the concentration range for both analytes.
Separation was achieved using the following elution gradient: 0 min to 1.5 min, 4% B ramping up to 95% B; 1.5 min to 2.3 min, kept at 95% B; 2.3 min to 2.4 min, 95% B to 4% B and kept at 4% B until 2.7 min. The flow rate was 0.7 mL/min.

[6] = tested on: male Wistar rats on 4% salt diet; test: Effect of zibotentan on haematocrit (Hct) concentration, Experiment 1; format: in vivo; details: Exp 1; for Hct concentration compared to vehicle: FIG. 4
Experimental: The effect of dapagliflozin and zibotentan on haematocrit (Hct) concentration in male Wistar rats on 4% salt diet was investigated.
as §1
For Hct and Hb analysis, 100 μl of blood from rat's tail vein was collected and measured using CG8 cartridges analysed with an iSTAT instrument (Abbott Point of Care Inc, Abbot Park, IL, USA).
as §2

[7] = tested on: male Wistar rats on 4% salt diet; test: Effect of zibotentan on urinary volume and Na, K, urea, creatinine, glucose in the urine, Experiment 1; format: in vivo; details: Exp 1; for Urine Creatine / Urine Glucose / Urine K / Urine Na / Urine Urea / Urine volume: 24 hr urine between doses nine and ten
Experimental: as §1, §3, §2

[8] = Exp 1, Zibo 30 mg/kg p.o. QD 14 days
[9] = Exp 1, Zibo 100 mg/kg p.o. QD 14 days
[10] = Exp 1, Zibo 300 mg/kg p.o. QD 14 days
[11] = Exp 1, zibotentan 100 mg/kg, 14 days

SMILES: CCOc1ccc(Cc2cc([C@@H]3O[C@H](CO)[C@@H](O)[C@H](O)[C@H]3O)ccc2Cl)cc1 [Dapa, (1S)-1,5-anhydro-1-{4-chloro-3-[(4-ethoxyphenyl)methyl]phenyl}-D-glucitol]
- Progression in UACR stage, hazard ratio ([1]; 3820 patients with UACR<3000 mg/g at baseline, 95% CI 0.32-0.52): 0.41
- Regression in UACR stage, hazard ratio ([1]; 3860 patients with UACR≥300 mg/g at baseline, 95% CI 1.60-2.05): 1.81
- UACR reduction compared to placebo ([1]; CKD patients with and without type 2 diabetes, baseline to end of study, 95% CI 25.2-33.1%): 29.3%
- UACR reduction compared to placebo ([1]; CKD patients with type 2 diabetes, 95% CI 30.6-39.4%): 35.1%
- UACR reduction compared to placebo ([1]; CKD patients without type 2 diabetes, 95% CI 5.9-22.9%): 14.8%

SMILES: COc1nc(C)cnc1NS(=O)(=O)c1cccnc1-c1ccc(-c2nnco2)cc1 [Zibo, N-(3-methoxy-5-methylpyrazin-2-yl)-2-[4-(1,3,4-oxadiazol-2-yl)phenyl]pyridine-3-sulfonamide]
- Body weight, Difference in means vs Vehicle ([2]; Zibo 30 mg/kg p.o. QD 14 days): 0.02
- Body weight, Difference in means vs Vehicle ([2]; Zibo 100 mg/kg p.o. QD 14 days): 0.02
- Body weight, Difference in means vs Vehicle ([2]; Zibo 300 mg/kg p.o. QD 14 days): 0.01
- Body weight change compared to vehicle ([2]; zibotentan 30, 100 and 300 mg/kg): no difference
- Plasma Glucose ([3]; Zibo 30 mg/kg p.o. QD 14 days): 9.76 ± 0.28 mmol/L
- Plasma K ([3]; Zibo 30 mg/kg p.o. QD 14 days): 4.50 ± 0.06 mmol/L
- Plasma Na ([3]; Zibo 30 mg/kg p.o. QD 14 days): 137.0 ± 0.96 mmol/L
- Plasma Urea ([3]; Zibo 30 mg/kg p.o. QD 14 days): 4.64 ± 0.20 mmol/L
- Plasma Glucose ([3]; Zibo 100 mg/kg p.o. QD 14 days): 9.65 ± 0.30 mmol/L
- Plasma K ([3]; Zibo 100 mg/kg p.o. QD 14 days): 4.52 ± 0.06 mmol/L
- Plasma Na ([3]; Zibo 100 mg/kg p.o. QD 14 days): 137.2 ± 0.97 mmol/L
- Plasma Urea ([3]; Zibo 100 mg/kg p.o. QD 14 days): 4.77 ± 0.25 mmol/L
- Plasma Glucose ([3]; Zibo 300 mg/kg p.o. QD 14 days): 9.34 ± 0.13 mmol/L
- Plasma K ([3]; Zibo 300 mg/kg p.o. QD 14 days): 4.76 ± 0.09 mmol/L
- Plasma Na ([3]; Zibo 300 mg/kg p.o. QD 14 days): 139.4 ± 0.86 mmol/L
- Plasma Urea ([3]; Zibo 300 mg/kg p.o. QD 14 days): 4.94 ± 0.39 mmol/L
- Level of Na, K, glucose and urea in the plasma compared to vehicle ([3]; different doses of zibotentan): no change
- Kidney/tibia length [4]: 54.00 ± 0.80 mg/mm
- Heart weight [4, 8]: 1.00 ± 0.02 g
- Heart/tibia length [4, 8]: 25.00 ± 0.47 mg/mm
- Kidney weight [4, 8]: 2.13 ± 0.04 g
- Heart weight [4, 9]: 1.05 ± 0.01 g
- Heart/tibia length [4, 9]: 27.00 ± 0.37 mg/mm
- Kidney weight [4, 9]: 2.16 ± 0.05 g
- Kidney/tibia length [4, 9]: 55.0 ± 1.65 mg/mm
- Heart weight [4, 10]: 0.98 ± 0.00 g
- Heart/tibia length [4, 10]: 25.00 ± 0.24 mg/mm
- Kidney/tibia length [4, 10]: 57.0 ± 1.39 mg/mm
- Heart weight compared to vehicle [4, 11]: increase
- Heart weight increase after normalizing with tibia length [4, 11]: not statistically significant
- Kidney weight with or without normalizing with tibia length compared to vehicle ([4]; Exp 1, zibotentan 300 mg/kg, 14 days): increase
- concentration at 24 h ([5]; 30 mg/kg, Zibo 30 mg/kg p.o. QD 14 days, 24 hr post last dose): 7.39 ± 10.4 µM
- concentration at 4 h ([5]; 30 mg/kg, Zibo 30 mg/kg p.o. QD): 53.8 ± 17.4 µM
- concentration at 24 h ([5]; 30 mg/kg, Zibo 30 mg/kg p.o. QD, 24 hr post first dose): 4.68 ± 3.93 µM
- concentration at 24 h ([5]; 100 mg/kg, Zibo 100 mg/kg p.o. QD 14 days, 24 hr post last dose): 39 ± 32.4 µM
- concentration at 4 h ([5]; 100 mg/kg, Zibo 100 mg/kg p.o. QD): 134 ± 43.8 µM
- concentration at 24 h ([5]; 100 mg/kg, Zibo 100 mg/kg p.o. QD, 24 hr post first dose): 39.1 ± 38.1 µM
- concentration at 24 h ([5]; 300 mg/kg, Zibo 300 mg/kg p.o. QD 14 days, 24 hr post last dose): 249 ± 193 µM
- concentration at 4 h ([5]; 300 mg/kg, Zibo 300 mg/kg p.o. QD): 247 ± 46 µM
- concentration at 24 h ([5]; 300 mg/kg, Zibo 300 mg/kg p.o. QD, 24 hr post first dose): 176 ± 108 µM
- Hct concentration compared to vehicle (significant decrease?) ([6]; zibotentan 30 mg/kg p.o. QD, day 14): not for the lower dose
- Hct concentration compared to vehicle ([6]; zibotentan 30, 100 and 300 mg/kg p.o. QD, day 7): significant (p<0.05) decrease
- Hct concentration compared to vehicle ([6]; zibotentan 100 and 300 mg/kg p.o. QD, day 14): significant (p<0.05) decrease
- Urine Creatine ([7]; Zibo 30 mg/kg p.o. QD): 88.8 ± 3.3 µmol
- Urine Glucose ([7]; Zibo 30 mg/kg p.o. QD): 0.01 ± 0.0 mmol
- Urine K ([7]; Zibo 30 mg/kg p.o. QD): 1.57 ± 0.05 mmol
- Urine Na ([7]; Zibo 30 mg/kg p.o. QD): 14.05 ± 0.95 mmol
- Urine Urea ([7]; Zibo 30 mg/kg p.o. QD): 6.19 ± 1.71 mmol
- Urine volume ([7]; Zibo 30 mg/kg p.o. QD): 28.19 ± 2.99 mL
- Urine Creatine ([7]; Zibo 100 mg/kg p.o. QD): 82.8 ± 2.5 µmol
- Urine Glucose ([7]; Zibo 100 mg/kg p.o. QD): 0.02 ± 0.0 mmol
- Urine K ([7]; Zibo 100 mg/kg p.o. QD): 1.52 ± 0.06 mmol
- Urine Na ([7]; Zibo 100 mg/kg p.o. QD): 13.01 ± 1.07 mmol
- Urine Urea ([7]; Zibo 100 mg/kg p.o. QD): 4.04 ± 0.39 mmol
- Urine volume ([7]; Zibo 100 mg/kg p.o. QD): 23.88 ± 2.02 mL
- Urine Creatine ([7]; Zibo 300 mg/kg p.o. QD): 82.9 ± 3.3 µmol
- Urine Glucose ([7]; Zibo 300 mg/kg p.o. QD): 0.18 ± 0.1 mmol
- Urine K ([7]; Zibo 300 mg/kg p.o. QD): 1.44 ± 0.03 mmol
- Urine Na ([7]; Zibo 300 mg/kg p.o. QD): 13.76 ± 0.76 mmol
- Urine Urea ([7]; Zibo 300 mg/kg p.o. QD): 4.60 ± 0.19 mmol
- Urine volume ([7]; Zibo 300 mg/kg p.o. QD): 29.09 ± 2.74 mL
- Level of urinary volume, Na, K, urea, creatinine and glucose compared to vehicle ([7]; different doses of zibotentan): no change
